The values below come from patent publication US12559506B2, “Indazole based compounds and associated methods of use” (Arvinas Operations, Inc., priority 2021, dated 2026).

Structures are written as SMILES. Where two headings read alike, the source gives them in different places.

One may read the Dmax as the greatest extent of degradation seen. For orientation: DC50 means the midpoint of the concentration-degradation curve.

The target in this assay is T1, LRRK2 (endogenous, HiBit tagged) (Homo sapiens, UniProt Q5S007).
T1 construct: endogenous in cells; host or cells: HEK293 cells with HiBit knock-in at the endogenous LRRK2 locus, stably expressing firefly luciferase
Briefly: Endogenous LRRK2 degradation assay, endogenous gene C-terminally HiBit-tagged in HEK293 cells (Nano-Glo Dual Luciferase). The assay is classed as cell-based. The source says: Exemplary Assay for Testing LRRK2 Degradation Driven by Exemplary Hetero-Bifunctional Compounds Designed to Target LRRK2
The assay measures the degradation of LRRK2 in cells where the C-terminus (3′) of the endogenous gene has been tagged with a HiBit sequence in HEK293 cells. The cells also express firefly luciferase, expressed from a Cytomegalovirus promoter and introduced into the HiBit tagged cells and stably expressed. The Nano-Glo® Dual Luciferase Reporter Assay System (Promega™, Madison, WI) was utilized.
Day 1—Preparation of Compound and Assay Plates. Two sets of plates were prepared: a triplicate set for the HiBit assay in white 384-well plates and a triplicate set of plate in black 384-well plates for the Alamar Blue cell viability assay. Briefly, the growth media (DMEM+Glutamax-10% fetal bovine serum-1% Penicillin-Streptomicin) from two T128 flasks was aspirated from the flasks. Cells were washed with Dulbecco's Phosphate Buffered Saline (dPBS) and aspirated. Trypsin (3 mL per flask) was added and the flasks were incubated for 2-3 minutes.
Ten mL of OptiMEM-10% fetal bovine-1% penicillin-streptomycin (hereinafter, “OptiMEM media”) was added to the flask and the cells and transferred to a 50 mL conical tube. A cell count (25 ul of cell into Effendorf vial+25 ul of Trypan Blue Stain) was performed and the cell density adjusted to 15,000 cell/45 μl/well (3.33×10^5/mL) in OptiMEM media.
Fourty-five microliters of the cell suspension (15,000 cells) was aliquoted to each well of the white 384-well plate. The plates incubated at room temperature for 10 minutes before being placed in the 37° C.+5% CO2 incubator overnight
Day 2—Compound Treatment. Exemplary compounds were prepared at a 1 mM starting concentration and 1:3 serial dilution for 11 points CRC prepared and stored in the freezer. The Master Compound Plate was thawed overnight at room temperature. DMSO (20 μL) was added into column 24 of the Master Compound Plate for negative control and 20 μL of 300 μM of Compound 4 in column 23 as positive control.
Intermediate Compound Plate with 4% DMSO in OptiMEM Media. DMSO was added to warm OptiMEM media to achieve a 4% DMSO solution (approximately 50 mL/plate). One-hundred microliters of the OptiMEM-4% DMSO was aliquoted to each well of 384-Well Deep Well Microplates.
The Master Compound Plate and the Intermediate Compound Plate were spun down.
One microliter of compound from the Master Compound Plate was transferred into the Intermediate plate (a 1:100 dilution). The diluted mixture was mixed and 5 μL transferred into the assay plate (a 1:10 dilution) for the final starting concentration of 1 μM. The Treated Assay plates were incubated for 24 hours at 37° C.+5% CO2. The Master Compound Plate was sealed and store at room temperature for a second run that was performed within a week.
Day 3—HiBit Assay. Five microliters of Alamar Blue was added to each well of the black 384-well plates. The plates were incubated for 2 hours in the incubator (37° C.+5% CO2) and at room temperature for one hour. Fluorescence of each plate was read on a plated reader for the Alamar Blue viability assay.
One set of white assay plates was warmed to room temperature (45 minute).
The One Glo luciferase mixture was prepared. The media from white 384-well assay plates was aspirated. Twenty-five μL of the One Glo luciferase mixture was added to each well of the assay plates. The plates were incubated on the bench (room temperature) for 45 minutes, including 10 minutes of shaking at 700 rpm. The luminescence of each plate was read on a plate reader.
1:100 DLR substrate and 1:100 LgBiT Protein dilution were added to the Promega Stop and Glo buffer and mixed just before addition to assay plates. Twenty-five microliters of Stop and Glo mixture was added to each well. Assay plates incubated for at least 45 minutes, including 10 minutes of shaking at 700 rpm. The luminescence of each plate was read on a plate reader.
Analysis of LRRK2 HiBit Screening assays. […]
A general note: The HiBiT peptide binds its large partner to form an active luciferase.

The mark [1] stands for this setting: endogenous HiBit-tagged LRRK2 in HEK293 cells, 24 hours treatment, read-out: **Endogenous WT Dmax (%).
Where [2] appears, read: endogenous HiBit-tagged LRRK2 in HEK293 cells, 24 hours treatment, read-out: *Endogenous WT DC50.
[3] abbreviates: endogenous HiBit-tagged LRRK2, HEK293 cells, 24 hours, read-out: **Endogenous WT Dmax (%).
Setting [4] is: endogenous HiBit-tagged LRRK2, HEK293 cells, 24 hours, read-out: *Endogenous WT DC50.
[5] abbreviates: endogenous HiBit-tagged LRRK2 in HEK293 cells, 24 hours treatment, read-out: Endogenous WT DC50.
[6] abbreviates: endogenous HiBit-tagged LRRK2 in HEK293 cells, 24 hours treatment, read-out: Endogenous WT Dmax.

T1 sequence (Q5S007 whole entry): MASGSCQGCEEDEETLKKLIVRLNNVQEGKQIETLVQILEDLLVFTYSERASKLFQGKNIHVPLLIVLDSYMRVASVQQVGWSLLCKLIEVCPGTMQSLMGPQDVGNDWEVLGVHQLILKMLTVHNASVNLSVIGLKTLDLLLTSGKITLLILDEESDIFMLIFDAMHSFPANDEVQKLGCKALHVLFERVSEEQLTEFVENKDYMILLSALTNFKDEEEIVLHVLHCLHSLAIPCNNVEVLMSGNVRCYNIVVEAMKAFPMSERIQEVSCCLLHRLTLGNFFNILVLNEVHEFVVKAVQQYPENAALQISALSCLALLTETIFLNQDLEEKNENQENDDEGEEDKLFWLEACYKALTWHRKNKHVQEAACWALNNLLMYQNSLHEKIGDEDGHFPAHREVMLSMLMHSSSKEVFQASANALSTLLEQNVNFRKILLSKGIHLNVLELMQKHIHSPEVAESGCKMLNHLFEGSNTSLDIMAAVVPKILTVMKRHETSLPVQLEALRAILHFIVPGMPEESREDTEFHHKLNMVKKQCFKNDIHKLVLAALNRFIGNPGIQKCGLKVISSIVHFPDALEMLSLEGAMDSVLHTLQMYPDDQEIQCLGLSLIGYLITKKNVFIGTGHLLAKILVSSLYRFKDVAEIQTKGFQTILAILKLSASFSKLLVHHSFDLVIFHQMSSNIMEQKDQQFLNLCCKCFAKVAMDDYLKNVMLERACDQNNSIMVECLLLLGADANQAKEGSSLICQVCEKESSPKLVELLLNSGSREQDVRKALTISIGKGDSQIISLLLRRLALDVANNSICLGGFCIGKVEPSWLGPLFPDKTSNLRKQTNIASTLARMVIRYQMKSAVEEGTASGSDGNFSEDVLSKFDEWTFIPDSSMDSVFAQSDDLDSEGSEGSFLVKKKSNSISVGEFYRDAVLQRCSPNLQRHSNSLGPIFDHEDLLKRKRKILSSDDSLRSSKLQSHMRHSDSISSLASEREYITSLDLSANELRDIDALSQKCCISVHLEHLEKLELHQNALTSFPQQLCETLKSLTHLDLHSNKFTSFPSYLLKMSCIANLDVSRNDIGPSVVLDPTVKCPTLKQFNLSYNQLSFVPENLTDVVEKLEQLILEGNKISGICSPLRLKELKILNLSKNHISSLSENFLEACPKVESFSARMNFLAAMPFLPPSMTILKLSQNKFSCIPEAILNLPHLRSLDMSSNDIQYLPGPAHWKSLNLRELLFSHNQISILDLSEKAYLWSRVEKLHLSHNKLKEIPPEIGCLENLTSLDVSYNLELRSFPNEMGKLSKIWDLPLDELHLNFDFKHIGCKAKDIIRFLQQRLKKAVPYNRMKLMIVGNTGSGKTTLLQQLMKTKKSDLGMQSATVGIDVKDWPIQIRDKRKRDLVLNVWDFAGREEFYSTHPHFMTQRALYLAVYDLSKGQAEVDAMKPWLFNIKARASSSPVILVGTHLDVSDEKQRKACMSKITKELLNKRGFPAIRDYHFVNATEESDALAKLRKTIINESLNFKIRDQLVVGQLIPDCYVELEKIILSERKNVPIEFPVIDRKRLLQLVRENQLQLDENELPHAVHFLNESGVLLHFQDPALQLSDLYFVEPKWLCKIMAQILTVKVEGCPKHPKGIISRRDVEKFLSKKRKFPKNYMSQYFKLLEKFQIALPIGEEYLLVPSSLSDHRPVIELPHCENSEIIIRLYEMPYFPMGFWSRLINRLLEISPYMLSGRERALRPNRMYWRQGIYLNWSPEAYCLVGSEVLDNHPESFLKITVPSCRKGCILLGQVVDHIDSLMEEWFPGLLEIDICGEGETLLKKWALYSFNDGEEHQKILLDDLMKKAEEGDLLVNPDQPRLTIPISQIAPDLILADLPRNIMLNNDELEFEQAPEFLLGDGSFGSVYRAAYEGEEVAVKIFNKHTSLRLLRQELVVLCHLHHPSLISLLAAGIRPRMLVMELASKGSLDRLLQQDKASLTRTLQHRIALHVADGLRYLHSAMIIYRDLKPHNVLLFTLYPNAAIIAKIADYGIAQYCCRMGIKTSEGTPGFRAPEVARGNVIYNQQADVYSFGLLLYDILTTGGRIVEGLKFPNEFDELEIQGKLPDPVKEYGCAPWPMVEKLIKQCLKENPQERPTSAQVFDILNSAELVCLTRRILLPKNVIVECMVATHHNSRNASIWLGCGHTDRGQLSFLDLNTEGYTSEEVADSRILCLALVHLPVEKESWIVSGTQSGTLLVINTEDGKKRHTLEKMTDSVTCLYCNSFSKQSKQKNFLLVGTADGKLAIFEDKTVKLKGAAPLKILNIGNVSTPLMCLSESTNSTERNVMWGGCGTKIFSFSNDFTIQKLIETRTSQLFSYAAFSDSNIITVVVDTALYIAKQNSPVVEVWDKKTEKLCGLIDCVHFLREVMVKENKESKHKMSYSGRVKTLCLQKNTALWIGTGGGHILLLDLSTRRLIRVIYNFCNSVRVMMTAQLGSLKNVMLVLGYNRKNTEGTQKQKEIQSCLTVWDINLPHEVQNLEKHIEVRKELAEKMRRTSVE

Regarding `CC1(Oc2ccc3[nH]nc(-c4cc(N5CCC(CN6CCN(C[C@H]7CCN(c8ccc9c(c8F)CN(C8CCC(=O)NC8=O)C9=O)C7)CC6)CC5)ncn4)c3c2)CC1` (stereo partly drawn) [Compound 330, 3-{4-fluoro-5-[(3R)-3-({4-[(1-{6-[5-(1-methylcyclopropoxy)-1H-indazol-3-yl]pyrimidin-4-yl}piperidin-4-yl)methyl]piperazin-1-yl}methyl)pyrrolidin-1-yl]-1-oxo-2,3-dihydro-1H-isoindol-2-yl}piperidine-2,6-dione], the maximal degradation (Dmax) under setting [1] is 50 to 70%. Moreover, the DC50 under setting [2] is below 10 nM.
As to `CC1(Oc2cc3c(-c4cc(N5CCN(CC6(F)CCN(CC7CCN(c8ccc9c(c8F)CN(C8CCC(=O)NC8=O)C9=O)CC7)CC6)CC5)ncn4)n[nH]c3cc2F)CC1` (stereo not drawn) [Compound 189, 3-[4-fluoro-5-[4-[[4-fluoro-4-[[4-[6-[6-fluoro-5-(1-methylcyclopropoxy)-1H-indazol-3-yl]pyrimidin-4-yl]piperazin-1-yl]methyl]-1-piperidyl]methyl]-1-piperidyl]-1-oxo-isoindolin-2-yl]piperidine-2,6-dione], the Dmax under setting [3] is at least 70%. In addition, under setting [4], the 50% degradation concentration (DC50) is below 10 nM.
For `CC1(Oc2ccc3[nH]nc(-c4cc(N5CCN(CC6(F)CCN(CC7CCN(c8ccc9c(c8F)CN(C8CCC(=O)NC8=O)C9=O)CC7)CC6)CC5)ncn4)c3c2)CC1` (stereo not drawn) [Compound 182, 3-[4-fluoro-5-[4-[[4-fluoro-4-[[4-[6-[5-(1-methylcyclopropoxy)-1H-indazol-3-yl]pyrimidin-4-yl]piperazin-1-yl]methyl]-1-piperidyl]methyl]-1-piperidyl]-1-oxo-isoindolin-2-yl]piperidine-2,6-dione], the Dmax under setting [3] is at least 70%. Under setting [4], the DC50 is below 10 nM.
Consider `CC1(Oc2ccc3n[nH]c(-c4cc(N5CC6(CCN([C@H]7C[C@H](OC8CCN(c9ccc%10c(c9F)CN(C9CCC(=O)NC9=O)C%10=O)CC8)C7)CC6)C5)ncn4)c3c2)CC1` (stereo partly drawn) [Compound 304, 3-(4-fluoro-1-oxo-5-{4-[(1r,3r)-3-(2-{6-[5-(1-methylcyclopropoxy)-2H-indazol-3-yl]pyrimidin-4-yl}-2,7-diazaspiro[3.5]nonan-7-yl)cyclobutoxy]piperidin-1-yl}-2,3-dihydro-1H-isoindol-2-yl)piperidine-2,6-dione], for which the Dmax under setting [1] lay in the range of 50 to 70%. Also, the DC50 under setting [2] is below 10 nM.
Taken in the same sequence, the figures for `CC1(Oc2ccc3n[nH]c(-c4cc(N5CCC(O[C@H]6C[C@H](N7CC[C@@H](c8ccc9c(c8)CN(C8CCC(=O)NC8=O)C9=O)[C@@H](F)C7)C6)CC5)ncn4)c3c2)CC1` (stereo partly drawn) [Compound 342, 3-{5-[(3r,4s)-3-fluoro-1-[(1r,3r)-3-[(1-{6-[5-(1-methylcyclopropoxy)-2H-indazol-3-yl]pyrimidin-4-yl}piperidin-4-yl)oxy]cyclobutyl]piperidin-4-yl]-1-oxo-2,3-dihydro-1H-isoindol-2-yl}piperidine-2,6-dione] were 50 to 70% and below 10 nM.
As to `CC1(Oc2ccc3[nH]nc(-c4cc(N5CCC(CN6CCN(CC7CCN(c8ccc9c(c8Cl)CN(C8CCC(=O)NC8=O)C9=O)CC7)CC6)CC5)ncn4)c3c2)CC1` (stereo not drawn) [Compound 239, 3-[4-chloro-5-[4-[[4-[[1-[6-[5-(1-methylcyclopropoxy)-1H-indazol-3-yl]pyrimidin-4-yl]-4-piperidyl]methyl]piperazin-1-yl]methyl]-1-piperidyl]-1-oxo-isoindolin-2-yl]piperidine-2,6-dione], the DC50 under setting [5] is below 10 nM. The maximal degradation (Dmax) under setting [6] is at least 70%.
Consider `CC1(Oc2ccc3[nH]nc(-c4cc(N5CCN(C[C@H]6CC[C@H](OC7CCN(c8ccc9c(c8Cl)CN(C8CCC(=O)NC8=O)C9=O)CC7)CC6)CC5)ncn4)c3c2)CC1` (stereo partly drawn) [Compound 243, 3-[4-chloro-1-oxo-5-(4-{[(1r,4r)-4-[(4-{6-[5-(1-methylcyclopropoxy)-1H-indazol-3-yl]pyrimidin-4-yl}piperazin-1-yl)methyl]cyclohexyl]oxy}piperidin-1-yl)-2,3-dihydro-1H-isoindol-2-yl]piperidine-2,6-dione], for which the DC50 under setting [5] is below 10 nM. Further, under setting [6], the maximal degradation (Dmax) is 50 to 70%.
`CC1(Oc2ccc3[nH]nc(-c4cc(N5CCC(CN6CCN(CC7CCN(c8ccc9c(c8F)CN(C8CCC(=O)NC8=O)C9=O)CC7)CC6)CC5)ncn4)c3c2)CC1` (stereo not drawn) [Compound 181, 3-[4-fluoro-5-[4-[[4-[[1-[6-[5-(1-methylcyclopropoxy)-1H-indazol-3-yl]pyrimidin-4-yl]-4-piperidyl]methyl]piperazin-1-yl]methyl]-1-piperidyl]-1-oxo-isoindolin-2-yl]piperidine-2,6-dione]: under setting [3], the Dmax was at least 70%. In addition, the half-maximal degradation concentration (DC50) under setting [4] is below 10 nM.
As for `COc1c(N2CCC(O[C@H]3CC[C@H](CN4CCN(c5cc(-c6n[nH]c7cc(F)c(OC8(C)CC8)cc67)ncn5)CC4)CC3)CC2)ccc2c1CN(C1CCC(=O)NC1=O)C2=O` (stereo partly drawn) [Compound 280, 3-[4-methoxy-1-oxo-5-(4-{[(1r,4r)-4-[(4-{6-[6-fluoro-5-(1-methylcyclopropoxy)-1H-indazol-3-yl]pyrimidin-4-yl}piperazin-1-yl)methyl]cyclohexyl]oxy}piperidin-1-yl)-2,3-dihydro-1H-isoindol-2-yl]piperidine-2,6-dione], the Dmax under setting [1] fell in the range of 50 to 70%. Further, under setting [2], the DC50 is below 10 nM.
The corresponding values for `COc1c(N2CCC(CN3CCC(OC4CN(c5cc(-c6[nH]nc7ccc(OC8(C)CC8)cc67)ncn5)C4)CC3)CC2)ccc2c1CN(C1CCC(=O)NC1=O)C2=O` (stereo not drawn) [Compound 298, 3-{4-methoxy-5-[4-({4-[(1-{6-[5-(1-methylcyclopropoxy)-2H-indazol-3-yl]pyrimidin-4-yl}azetidin-3-yl)oxy]piperidin-1-yl}methyl)piperidin-1-yl]-1-oxo-2,3-dihydro-1H-isoindol-2-yl}piperidine-2,6-dione] are 50 to 70% and below 10 nM.
For `CC1(Oc2ccc3[nH]nc(-c4cc(N5CCN(C[C@H]6CC[C@H](CN7CCN(c8ccc9c(c8F)CN(C8CCC(=O)NC8=O)C9=O)CC7)CC6)CC5)ncn4)c3c2)CC1` (stereo partly drawn) [Compound 202, 3-[4-fluoro-5-[[4-[[4-[4-[6-[5-(1-methylcyclopropoxy)-1H-indazol-3-yl]pyrimidin-4-yl]piperazin-1-yl]methyl]cyclohexyl]methyl]piperazin-1-yl]-1-oxo-isoindolin-2-yl]piperidine-2,6-dione], under setting [3], the greatest degradation seen (Dmax) was at least 70%. Moreover, under setting [4], the 50% degradation concentration (DC50) is below 10 nM.
For `CC1(Oc2cc3c(-c4cc(N5CCC(CN6CCN(CC7CCN(c8ccc9c(c8F)CN(C8CCC(=O)NC8=O)C9=O)CC7)C(C)(C)C6)CC5)ncn4)n[nH]c3cn2)CC1` (stereo not drawn) [Compound 270, 3-{5-[4-({2,2-dimethyl-4-[(1-{6-[5-(1-methylcyclopropoxy)-1H-pyrazolo[3,4-c]pyridin-3-yl]pyrimidin-4-yl}piperidin-4-yl)methyl]piperazin-1-yl}methyl)piperidin-1-yl]-4-fluoro-1-oxo-2,3-dihydro-1H-isoindol-2-yl}piperidine-2,6-dione], the greatest degradation seen (Dmax) under setting [1] is at least 70%. In addition, the 50% degradation concentration (DC50) under setting [2] is below 10 nM.
